Experimental data as given in US5795756A, “Method and compounds for the inhibition of adenylyl cyclase” (priority 1996, dated 1998).
Where two headings read alike, the source gives them in different places. One block for each molecule: values may come before it.

Key:
[1] = molecular target: adenylyl cyclase, Type I, purified recombinant (Bos taurus, UniProt P19754); test: Inhibition of purified recombinant Type I adenylyl cyclase (Table II); type: biochemical; details: forskolin eluate
[2] = molecular target: rat brain adenylyl cyclase; test: Inhibition of detergent-dispersed rat brain adenylyl cyclase (Table I); type: biochemical; details: for inhibition of adenylyl cyclase activity compared with adenosine: in words, relative to adenosine
Description: Detergent-dispersed adenylyl cyclase from rat brain was prepared as previously described^58. Activities were determined in a reaction mixture containing 50 mM N-[2-hydroxyethyl]-piperazine-N'-[2-ethanesulfonic acid] (HEPES) or 50 mM triethanolamine.cndot.HCl, pH 7.5, 5 mM MnCl2, 100 μM 5'ATP, [α-^32 p]5'ATP (ca. 2 to 5×10^5 dpm), 0.1% (w/v) Lubrol-PX, 1 mM 3-isobutyl-1-methyl-xanthine, 1 mM dithiothreitol, 1 mg bovine serum albumin per ml, 2 mM creatine phosphate, 100 μg creatine kinase per ml, and 100 μM forskolin, in a reaction volume of 100 μl. Reactions were for 15 min at 30° C. and were terminated by the addition of 0.6 ml 120 mM zinc acetate containing 0.5 mM cAMP and 0.5 ml 144 mM sodium carbonate as described by Jakobs et al.^59.
The resulting ZnCO3 precipitate was sedimented by centrifugation in a desktop microfuge. The [^32 P] cAMP in the supernatant fraction was then purified free of residual substrate and other contaminants by sequential chromatography on Dowex-50 and Al2 O3, as described by Salomon et al.^60. [^32 P]cAMP was quantified by Cherenkov radiation in a liquid scintillation spectrometer.
The synthesized adenine derivatives, 1-5, 8, 11-13, 16, 19-21, 34 and 35 were each tested separately in vitro for their ability to inhibit adenylyl cyclase activity by administration of each compound to the above-describedadenylyl cyclase assay.

[3] = tested on: intestinal epithelium; details: cited from earlier work
[4] = molecular target: rat brain adenylyl cyclase; details: Table I, footnote a: values from Johnson et al. 1989; read-out: IC50 for inhibition of rat brain adenylyl cyclase; cited from earlier work
[5] = tested on: adenylyl cyclases; details: related art, cited from earlier work; for inhibition of adenylyl cyclases via P-site: in words; for IC50: read-out: IC50 for inhibition of adenylyl cyclases
[6] = molecular target: adenylyl cyclase, bovine brain, purified; test: Inhibition of purified bovine brain adenylyl cyclase (Table II); type: biochemical; details: forskolin eluates from forskolin affinity column
[7] = tested on: adenylyl cyclase; test: Inhibition of adenylyl cyclase in intact cells and tissues; type: cell-based; details: cell permeable variants
[8] = Table I, 5 mM MnCl2, 100 μM 5'ATP, 100 μM forskolin, pH 7.5, 15 min at 30° C., read-out: IC50 for inhibition of rat brain adenylyl cyclase
[9] = Table II, rat brain, detergent extract, values from Table I, read-out: IC50, rat brain detergent extract
[10] = modified or replaced ribosyl moiety

Sequence of adenylyl cyclase, Type I, purified recombinant (P19754 whole entry): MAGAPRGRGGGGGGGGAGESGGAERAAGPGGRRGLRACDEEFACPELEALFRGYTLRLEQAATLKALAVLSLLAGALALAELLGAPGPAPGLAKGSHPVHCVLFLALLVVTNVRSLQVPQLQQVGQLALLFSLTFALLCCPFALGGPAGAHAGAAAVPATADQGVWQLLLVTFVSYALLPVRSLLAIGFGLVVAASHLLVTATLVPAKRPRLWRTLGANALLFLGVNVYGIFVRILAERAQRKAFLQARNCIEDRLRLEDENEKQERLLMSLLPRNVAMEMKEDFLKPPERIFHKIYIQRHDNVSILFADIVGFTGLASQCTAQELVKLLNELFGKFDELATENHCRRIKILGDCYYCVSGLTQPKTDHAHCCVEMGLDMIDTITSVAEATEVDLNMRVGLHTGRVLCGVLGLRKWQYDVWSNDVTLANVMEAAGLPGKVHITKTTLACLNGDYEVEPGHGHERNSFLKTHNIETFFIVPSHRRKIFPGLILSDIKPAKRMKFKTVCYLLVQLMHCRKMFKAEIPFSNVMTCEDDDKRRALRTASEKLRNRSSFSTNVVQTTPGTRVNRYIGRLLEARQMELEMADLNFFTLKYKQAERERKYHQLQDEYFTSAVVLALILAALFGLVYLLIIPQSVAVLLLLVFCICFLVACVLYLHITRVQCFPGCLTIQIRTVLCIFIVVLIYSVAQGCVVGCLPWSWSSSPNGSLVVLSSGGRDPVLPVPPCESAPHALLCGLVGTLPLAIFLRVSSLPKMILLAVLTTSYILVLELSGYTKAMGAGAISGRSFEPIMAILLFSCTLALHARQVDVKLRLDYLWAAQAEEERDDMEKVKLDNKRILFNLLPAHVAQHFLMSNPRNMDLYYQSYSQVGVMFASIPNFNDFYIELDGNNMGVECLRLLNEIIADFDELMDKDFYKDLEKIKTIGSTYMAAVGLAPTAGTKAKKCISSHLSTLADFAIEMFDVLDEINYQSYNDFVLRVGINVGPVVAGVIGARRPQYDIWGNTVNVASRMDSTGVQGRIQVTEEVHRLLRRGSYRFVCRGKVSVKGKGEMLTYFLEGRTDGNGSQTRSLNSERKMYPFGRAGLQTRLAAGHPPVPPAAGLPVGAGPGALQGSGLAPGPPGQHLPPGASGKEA

- IC50 [1]: 1.99 µM
- IC50 [2, 8]: 0.46 µM
- IC50 [2, 9]: 0.46 µM
SMILES: C[C@H]1O[C@@H](n2cnc3c(N)ncnc32)C[C@@H]1OP(=O)(O)O [2'5'dd3'AMP]

SMILES: C[C@H]1O[C@@H](n2cnc3c(N)ncnc32)C[C@@H]1O [2',5'-dideoxyadenosine]
- counteracting effects of cholera intoxication [3]: used to counteract the effects of cholera intoxication in intestinal epithelium
- IC50 [4]: 2.7 µM

SMILES: Nc1ncnc2c1ncn2[C@H]1C[C@H](O)[C@@H](CO)O1 [2'-deoxyadenosine]
- IC50 [4]: 15 µM

SMILES: Nc1ncnc2c1ncn2[C@H]1C[C@H](OP(=O)(O)O)[C@@H](CO)O1 [2'd3'AMP]
- IC50 [4]: 1.2 µM

SMILES: Nc1nc(F)nc2c1ncn2[C@H]1C[C@H](O)[C@@H](CO)O1 [2-fluoro-2'-deoxyadenosine]
- inhibition of adenylyl cyclases via P-site [5]: inhibitory

SMILES: Nc1nc(F)nc2c1ncn2[C@@H]1O[C@H](CO)[C@@H](O)[C@H]1O [2-fluoroadenosine]
- inhibition of adenylyl cyclases via P-site [5]: inhibitory

SMILES: C[C@H]1O[C@@H](n2cnc3c(N)ncnc32)C[C@@H]1OC(=O)c1ccc(S(=O)(=O)F)cc1 [3'-(4-fluorosulfonylbenzoyl) -2', 5'-dideoxyadenosine]
- inhibition of adenylyl cyclases via P-site [5]: inhibitory effectiveness

SMILES: C[C@H]1O[C@@H](n2cnc3c(N)ncnc32)C[C@@H]1OC(=O)CCC(=O)O [3'-succinyl-2', 5'-dideoxyadenosine]
- inhibition of adenylyl cyclases via P-site [5]: inhibitory effectiveness

- IC50 [2, 8]: 8.9 µM
SMILES: Nc1ncnc2c1ncn2[C@@H]1O[C@H](CO)[C@@H](OP(=O)(O)O)[C@H]1O [3'AMP]

SMILES: Nc1ncnc2c1ncn2C1CCCO1 (centres unmarked) [9-(tetrahydro-2-furyl)-adenine]
- IC50 [5, 10]: ~10 µM

SMILES: CC1CCC(n2cnc3c(N)ncnc32)O1 (centres unmarked) [9-(tetrahydro-5-methyl-2-furyl)-adenine]
- IC50 [5, 10]: ~8 µM

SMILES: Nc1ncnc2c1ncn2C1CCCC1 [9-cyclopentyl-adenine]
- IC50 [5, 10]: ~20 µM

SMILES: Nc1ncnc2c1ncn2Cc1ccco1 [9-furfuryl-adenine]
- IC50 ([5]; unit printed kM): ~26 µM

SMILES: Nc1ncnc2c1ncn2[C@@H]1O[C@H](CO)[C@@H](O)[C@@H]1O [9-β-D-arabinofuranosyl-adenine]
- IC50 [5, 10]: ~100 µM

SMILES: Nc1ncnc2c1ncn2[C@@H]1O[C@H](CO)[C@H](O)[C@H]1O [9-β-D-xylofuranosyl-adenine]
- IC50 [5, 10]: ~25 µM

- IC50 [2, 8]: 3 µM
SMILES: C[C@H]1O[C@@H](n2cnc3c(N)ncnc32)C[C@@H]1OP(=O)(O)OCCN(C)S(=O)(=O)c1cccc2c(N(C)C)cccc12 [Compound 1, 2', 5'-dideoxyadenosine-3'-[2-([(5-dimethylamino-1-naphthalenesulfonamido) -(N-methyl)]-aminoethyl)-phosphate]]
- inhibition of adenylyl cyclase activity compared with adenosine [2]: inhibited adenylyl cyclase activity at concentrations considerably lower than that for adenosine

SMILES: CC(C)CCC[C@@H](C)[C@H]1CC[C@H]2[C@@H]3CC=C4C[C@@H](OP(=O)(O)O[C@H]5C[C@H](n6cnc7c(N)ncnc76)O[C@@H]5C)CC[C@]4(C)[C@H]3CC[C@]12C [Compound 2, 2', 5'dideoxyadenosine-3'-[(3-cholesteryl)-phosphate]]
- IC50 [2, 8]: > 300 µM
- inhibition of adenylyl cyclase activity compared with adenosine [2]: less effective than adenosine in the inhibition of adenylyl cyclase activity

- IC50 [1]: 0.25 µM
- IC50 [6]: 0.56 µM
- IC50 [2, 8]: 0.1 µM
- IC50 [2, 9]: 0.1 µM
SMILES: C[C@H]1O[C@@H](n2cnc3c(N)ncnc32)C[C@@H]1OP(=O)(O)OP(=O)(O)O [Compound 3, 2', 5'-dideoxyadenosine-3'-diphosphate]

- IC50 [1]: 0.17 µM
- IC50 [6]: 0.12 µM
- IC50 [2, 8]: 0.04 µM
- IC50 [2, 9]: 0.04 µM
SMILES: C[C@H]1O[C@@H](n2cnc3c(N)ncnc32)C[C@@H]1OP(=O)(O)OP(=O)(O)OP(=O)(O)O [Compound 4, 2', 5'-dideoxyadenosine-3'-triphosphate]

- IC50 [2, 8]: 0.01 µM
SMILES: C[C@H]1O[C@@H](n2cnc3c(N)ncnc32)C[C@@H]1OP(=O)(O)OP(=O)(O)OP(=O)(O)OP(=O)(O)O [Compound 5, 2', 5'-dideoxyadenosine-3'-tetraphosphate]

SMILES: C[C@H]1O[C@@H](n2cnc3c(N)ncnc32)C[C@@H]1OP(O)(O)=S [Compound 8, 2', 5'-dideoxyadenosine-3'-O-thiophosphate]
- inhibition of adenylyl cyclase activity compared with adenosine [2]: inhibited adenylyl cyclase activity at concentrations considerably lower than that for adenosine

- IC50 [2, 8]: 0.14 µM
SMILES: Nc1ncnc2c1ncn2[C@H]1C[C@H](OP(=O)(O)OP(=O)(O)O)[C@@H](CO)O1 [Compound 11, 2'-deoxyadenosine-3'-diphosphate]

- IC50 [2, 8]: 0.09 µM
SMILES: Nc1ncnc2c1ncn2[C@H]1C[C@H](OP(=O)(O)OP(=O)(O)OP(=O)(O)O)[C@@H](CO)O1 [Compound 12, 2'-deoxyadenosine-3'-triphosphate]

- IC50 [2, 8]: 0.013 µM
SMILES: Nc1ncnc2c1ncn2[C@H]1C[C@H](OP(=O)(O)OP(=O)(O)OP(=O)(O)OP(=O)(O)O)[C@@H](CO)O1 [Compound 13, 2'-deoxyadenosine-3'-tetraphosphate]

SMILES: Nc1ncnc2c1ncn2[C@H]1C[C@H](OP(O)(O)=S)[C@@H](CO)O1 [Compound 16, 2'-deoxyadenosine-3'-O-thiophosphate]
- inhibition of adenylyl cyclase activity compared with adenosine [2]: inhibited adenylyl cyclase activity at concentrations considerably lower than that for adenosine

SMILES: Nc1nc(F)nc2c1ncn2C1CCCC1 [Compound 19, 9-cyclopentyl-2-fluoro-9H-adenine]
- inhibition of the enzyme in intact cells and tissues [7]: inhibit the enzyme in intact cells and tissues
- inhibition of adenylyl cyclase activity compared with adenosine [2]: inhibited adenylyl cyclase activity at concentrations considerably lower than that for adenosine

- IC50 [2, 8]: 3.9 µM
SMILES: Nc1ncnc2c1ncn2[C@@H]1O[C@H](CO)[C@@H](OP(=O)(O)OP(=O)(O)O)[C@H]1O [Compound 34, adenosine-3'-diphosphate]

- IC50 [2, 8]: 2 µM
SMILES: Nc1ncnc2c1ncn2[C@@H]1O[C@H](CO)[C@@H](OP(=O)(O)OP(=O)(O)OP(=O)(O)O)[C@H]1O [Compound 35, adenosine-3'-triphosphate]

SMILES: Nc1ncnc2c1ncn2[C@@H]1O[C@H](CO)[C@@H](O)[C@H]1O [adenosine]
- IC50 [4]: 82 µM

SMILES: Nc1cc[nH]c(=O)n1 [cytosine]
- inhibition of adenylyl cyclases via P-site [5]: inactive

SMILES: Nc1ncnc2c1ncn2C[C@@H](O)[C@@H](O)C(=O)O [eritadenine]
- IC50 [5, 10]: 6 to 12 µM

SMILES: Nc1nc2c(ncn2[C@@H]2O[C@H](CO)[C@@H](O)[C@H]2O)c(=O)[nH]1 [guanosine]
- inhibition of adenylyl cyclases via P-site [5]: inactive

SMILES: OC[C@H]1O[C@@H](n2cnc3c(O)ncnc32)[C@H](O)[C@@H]1O [inosine]
- inhibition of adenylyl cyclases via P-site [5]: inactive

SMILES: Cc1cn([C@H]2C[C@H](O)[C@@H](CO)O2)c(=O)[nH]c1=O [thymidine]
- inhibition of adenylyl cyclases via P-site [5]: inactive

SMILES: O=c1ccn([C@@H]2O[C@H](CO)[C@@H](O)[C@H]2O)c(=O)[nH]1 [uridine]
- inhibition of adenylyl cyclases via P-site [5]: inactive
